Measured values taken from ChEMBL document CHEMBL4350989, “Discovery of 2,4-diarylaminopyrimidine derivatives bearing dithiocarbamate moiety as novel FAK inhibitors with antitumor and anti-angiogenesis activities” (Eur J Med Chem, 2019).

Experiments:
[1] = tested on: MCF7; assay: Antiproliferative activity against human MCF7 cells overexpressing FAK assessed as reduction in cell viability after 72 hrs by MTS assay; details: MCF7, 72 h
[2] = tested on: HCT-116; assay: Induction of cell cycle arrest in human HCT116 cells assessed as accumulation at G0/G1 phase at 0.005 uM after 24 hrs by 7-AAD staining-based flow cytometric analysis (reference value: 50.53%); assay type: functional
[3] = tested on: HCT-116; assay: Induction of cell cycle arrest in human HCT116 cells assessed as accumulation at S phase at 0.005 uM after 24 hrs by 7-AAD staining-based flow cytometric analysis (reference value: 37.20%); assay type: functional
[4] = tested on: HCT-116; assay: Induction of cell cycle arrest in human HCT116 cells assessed as accumulation at G0/G1 phase at 0.05 uM after 24 hrs by 7-AAD staining-based flow cytometric analysis (reference value: 50.53%); assay type: functional
[5] = tested on: HCT-116; assay: Induction of cell cycle arrest in human HCT116 cells assessed as accumulation at G0/G1 phase at 0.1 uM after 24 hrs by 7-AAD staining-based flow cytometric analysis (reference value: 50.53%); assay type: functional
[6] = tested on: MCF7; assay: Induction of cell cycle arrest in human MCF7 cells assessed as accumulation at S phase at 0.005 uM after 24 hrs by 7-AAD staining-based flow cytometric analysis (reference value: 26.07%); assay type: functional
[7] = tested on: MCF7; assay: Induction of cell cycle arrest in human MCF7 cells assessed as accumulation at G0/G1 phase at 0.05 uM after 24 hrs by 7-AAD staining-based flow cytometric analysis (reference value: 62.45%); assay type: functional
[8] = tested on: MCF7; assay: Induction of cell cycle arrest in human MCF7 cells assessed as increase in accumulation at G2/M phase after 24 hrs by 7-AAD staining-based flow cytometric analysis; assay type: functional
[9] = tested on: MCF7; assay: Induction of apoptosis in human MCF7 cells assessed as viable cells at 0.005 uM after 24 hrs by Annexin-V and 7-AAD staining based flow cytometric analysis (reference value: 90.2%); assay type: functional; details: MCF7, 24 h, read-out: Activity
[10] = tested on: MCF7; assay: Induction of apoptosis in human MCF7 cells assessed as viable cells at 0.01 uM after 24 hrs by Annexin-V and 7-AAD staining based flow cytometric analysis (reference value: 90.2%); assay type: functional; details: MCF7, 24 h, read-out: Activity
[11] = tested on: HCT-116; assay: Induction of apoptosis in human HCT116 cells assessed as viable cells at 0.005 uM after 24 hrs by Annexin-V and 7-AAD staining based flow cytometric analysis (reference value: 88.6%); assay type: functional; details: HCT-116, 24 h, read-out: Activity
[12] = tested on: HCT-116; assay: Induction of apoptosis in human HCT116 cells assessed as early apoptotic cells at 0.005 uM after 24 hrs by Annexin-V and 7-AAD staining based flow cytometric analysis (reference value: 8.11%); assay type: functional
[13] = tested on: HCT-116; assay: Induction of apoptosis in human HCT116 cells assessed as viable cells at 0.1 uM after 24 hrs by Annexin-V and 7-AAD staining based flow cytometric analysis (reference value: 88.6%); assay type: functional; details: HCT-116, 24 h, read-out: Activity
[14] = tested on: HCT-116; assay: Induction of apoptosis in human HCT116 cells assessed as early apoptotic cells at 0.1 uM after 24 hrs by Annexin-V and 7-AAD staining based flow cytometric analysis ((reference value: 8.11%); assay type: functional
[15] = tested on: HCT-116; assay: Induction of apoptosis in human HCT116 cells assessed as necrotic cells at 0.1 uM after 24 hrs by Annexin-V and 7-AAD staining based flow cytometric analysis (reference value: 0.68%); assay type: functional
[16] = tested on: HCT-116; assay: Induction of apoptosis in human HCT116 cells assessed as late apoptotic cells at 0.05 uM after 24 hrs by Annexin-V and 7-AAD staining based flow cytometric analysis (reference value: 2.63%); assay type: functional
[17] = tested on: HCT-116; assay: Induction of apoptosis in human HCT116 cells assessed as necrotic cells at 0.05 uM after 24 hrs by Annexin-V and 7-AAD staining based flow cytometric analysis (reference value: 0.68%); assay type: functional
[18] = organism: Homo sapiens; assay: Induction of apoptosis in human […] after 24 hrs by Annexin-V and 7-AAD staining based flow cytometric analysis; assay type: functional, cell-based

For `CNC(=O)c1ccccc1Nc1nc(Nc2ccc(C(=O)N3CCN(C(=S)SCCN(C)C)CC3)cc2)ncc1C(F)(F)F`, which IC50 [1] is on record?
Its IC50 is 20 nM.

And the Activity [2]?
Its Activity is 39.76%.

What about the Activity [3] of the same compound?
The Activity was 41.86%.

What about the Activity [4] of the same compound?
The Activity was 3.4%.

What about the Activity [5] of the same compound?
The Activity was 5.14%.

And the Activity [6]?
The Activity was 21.4%.

And the Activity [7]?
The Activity was 6.72%.

What about the Activity [8] of the same compound?
The Activity was “Dose-dependent effect”.

And the viability at 0.005 µM [9]?
Its viability at 0.005 µM is 74.2%.

What about the viability at 0.01 µM [10] of the same compound?
The viability at 0.01 µM was 71.2%.

And the viability at 0.005 µM [11]?
Its viability at 0.005 µM is 82.4%.

And the Activity [12]?
Its Activity is 15.9%.

What about the viability at 0.1 µM [13] of the same compound?
The viability at 0.1 µM was 78.4%.

And the Activity [14]?
The Activity was 21.5%.

What about the Activity [15] of the same compound?
Its Activity is 0%.

And the Activity [16]?
The Activity was 1.68%.

What about the Activity [17] of the same compound?
The Activity was 0.29%.

And the Activity [18]?
Its Activity is “Dose-dependent effect”.
